The subject of the experiment is L1210 leukemia ip in BDF1 mice, survival T/C. Kind of experiment: NCI In Vivo Anticancer Drug Screen. Data for tumor model L1210 Leukemia (intraperitoneal) in B6D2F1 (BDF1) mice. Particulars: endpoint: mean survival time, higher = longer survival. A digest of the protocol: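 In this screen, tumor-bearing mice given compound are compared to those given vehicle, and their survival values are reported as a treated-to-control quotient.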

Where [1] appears, read: dose: 100.0 mg/kg/injection, schedule: Q04DX003 (ip), vehicle: saline.
[2] abbreviates: dose: 200.0 mg/kg/injection, schedule: Q04DX003 (ip), vehicle: saline.
Setting [3] is: dose: 400.0 mg/kg/injection, schedule: Q04DX003 (ip), vehicle: saline.

Where “and” joins values, the source holds several entries; their conditions need not be identical. Equal values may be shown once. Inconclusive results and toxic doses are left out.

Take `COCCCN=C(N)c1ccc(NC(=O)c2ccc(C(=O)Nc3ccc(C(N)=NCCCOC)cc3)cc2)cc1`: the T/C (dose: 0.75 mg/kg/injection, schedule: Q01DX Z (ip), vehicle: saline) is 114 % of control; the T/C (dose: 1.0 mg/kg/injection, schedule: Q01DX006 (iv), vehicle: saline) is 106 % of control; the T/C (dose: 1.0 mg/kg/injection, schedule: Q01DX Z (ip), vehicle: saline) was 119 % of control; the T/C (dose: 1.0 mg/kg/injection, schedule: Q01DX Z (sc), vehicle: saline) was 102 % of control; the T/C (dose: 1.0 mg/kg/injection, schedule: Q02DX004 (im), vehicle: saline) was 96 % of control; the T/C (dose: 2.0 mg/kg/injection, schedule: Q01DX006 (iv), vehicle: saline) was 98 % of control. The T/C (dose: 2.0 mg/kg/injection, schedule: Q01DX Z (sc), vehicle: saline) was 90 % of control; the T/C (dose: 2.0 mg/kg/injection, schedule: Q02DX004 (im), vehicle: saline) is 107 % of control; the T/C (dose: 3.0 mg/kg/injection, schedule: Q01DX Z (ip), vehicle: saline) was 156 % of control and 183 % of control; the T/C (dose: 4.0 mg/kg/injection, schedule: Q01DX006 (iv), vehicle: saline) was 122 % of control; the T/C (dose: 4.0 mg/kg/injection, schedule: Q01DX Z (ip), vehicle: saline) was 223 % of control; the T/C (dose: 4.0 mg/kg/injection, schedule: Q01DX Z (sc), vehicle: saline) was 154 % of control. Besides, the T/C (dose: 4.0 mg/kg/injection, schedule: Q02DX004 (im), vehicle: saline) was 106 % of control; the T/C (dose: 6.0 mg/kg/injection, schedule: Q01DX Z (ip), vehicle: saline) is 269 % of control; the T/C (dose: 6.0 mg/kg/injection, schedule: Q01DX Z (oral), vehicle: saline) was 97 % of control; the T/C (dose: 8.0 mg/kg/injection, schedule: Q01DX006 (iv), vehicle: saline) is 189 % of control; the T/C (dose: 8.0 mg/kg/injection, schedule: Q01DX Z (sc), vehicle: saline) was 158 % of control; the T/C (dose: 12.0 mg/kg/injection, schedule: Q01DX Z (oral), vehicle: saline) is 100 % of control. In addition, the T/C (dose: 15.0 mg/kg/injection, schedule: Q01DX Z (ip), vehicle: saline) was 115 % of control; the T/C (dose: 16.0 mg/kg/injection, schedule: Q01DX Z (ip), vehicle: saline) is 112 % of control; the T/C (dose: 16.0 mg/kg/injection, schedule: Q01DX Z (sc), vehicle: saline) is 116 % of control; the T/C (dose: 16.0 mg/kg/injection, schedule: Q02DX004 (im), vehicle: saline) was 154 % of control; the T/C (dose: 24.0 mg/kg/injection, schedule: Q01DX Z (oral), vehicle: saline) was 102 % of control; the T/C (dose: 32.0 mg/kg/injection, schedule: Q02DX004 (im), vehicle: saline) was 118 % of control. The T/C is 100 % of control (dose: 48.0 mg/kg/injection, schedule: Q01DX Z (oral), vehicle: saline); 96 % of control (dose: 62.5 mg/kg/injection, schedule: Q## X010 (oral), vehicle: saline); 119 % of control (dose: 250.0 mg/kg/injection, schedule: Q## X010 (oral), vehicle: saline).

Turning to `O=C(NCc1ccncc1)Nc1ccccc1Cl`, the T/C (dose: 100.0 mg/kg/injection, schedule: Q04DX002 (ip), vehicle: saline) is 97 % of control and the T/C (dose: 200.0 mg/kg/injection, schedule: Q04DX002 (ip), vehicle: saline) is 87 % of control.

Regarding `CC(C)(C)C1CCC(NC(=O)N(CCCl)N=O)CC1` (configuration not stated), the T/C is, setting by setting: (dose: 16.0 mg/kg/injection, schedule: Q01DX001 (ip), vehicle: other) 116 % of control; (dose: 125.0 mg/kg/injection, schedule: Q01DX001 (ip), vehicle: other) 198 % of control; (dose: 177.0 mg/kg/injection, schedule: Q01DX001 (ip), vehicle: other) 264 % of control; (dose: 250.0 mg/kg/injection, schedule: Q01DX001 (ip), vehicle: other) 259 % of control and 283 % of control; (dose: 354.0 mg/kg/injection, schedule: Q01DX001 (ip), vehicle: other) 272 % of control; (dose: 375.0 mg/kg/injection, schedule: Q01DX001 (ip), vehicle: other) 275 % of control. Moreover, the T/C is 200 % of control and 317 % of control (dose: 500.0 mg/kg/injection, schedule: Q01DX001 (ip), vehicle: other); 106 % of control (dose: 708.0 mg/kg/injection, schedule: Q01DX001 (ip), vehicle: other); 170 % of control and 252 % of control (dose: 750.0 mg/kg/injection, schedule: Q01DX001 (ip), vehicle: other); 86 % of control (dose: 1000.0 mg/kg/injection, schedule: Q01DX001 (ip), vehicle: other); 219 % of control (dose: 1250.0 mg/kg/injection, schedule: Q01DX001 (ip), vehicle: other); 98 % of control (dose: 2000.0 mg/kg/injection, schedule: Q01DX001 (ip), vehicle: other).

On to `ClC1=C(Cl)C2(Cl)CCC1(Cl)C2(Cl)Cl`, for which the T/C by setting is: under setting [1], 101 % of control; under setting [2], 97 % of control; under setting [3], 108 % of control.

Regarding `CCOC(OCC)OC(C)=O`, the T/C is 107 % of control (dose: 100.0 mg/kg/injection, schedule: Q01DX009 (ip), vehicle: saline); 110 % of control under setting [1]; 98 % of control (dose: 200.0 mg/kg/injection, schedule: Q01DX009 (ip), vehicle: saline); 97 % of control under setting [2]; 90 % of control (dose: 400.0 mg/kg/injection, schedule: Q01DX009 (ip), vehicle: saline); 103 % of control under setting [3].

`CCN(CC)c1ccc(Sc2ccc([N+](=O)[O-])cc2[N+](=O)[O-])cc1`: the T/C runs as follows: (dose: 100.0 mg/kg/injection, schedule: Q01DX001 (ip), vehicle: carboxymethylcellulose (CMC)) 88 % of control; (dose: 200.0 mg/kg/injection, schedule: Q01DX001 (ip), vehicle: carboxymethylcellulose (CMC)) 92 % of control; (dose: 400.0 mg/kg/injection, schedule: Q01DX001 (ip), vehicle: carboxymethylcellulose (CMC)) 92 % of control.

Regarding `CC(=O)OCC1OC(n2cc(C)c(=O)[nH]c2=O)CC1OC(C)=O` (configuration not stated), the T/C by setting is: (dose: 684.0 mg/kg/injection, schedule: Q02DX010 (ip), vehicle: other) 99 % of control; (dose: 1368.0 mg/kg/injection, schedule: Q02DX010 (ip), vehicle: other) 105 % of control; (dose: 2052.0 mg/kg/injection, schedule: Q02DX010 (ip), vehicle: other) 96 % of control.

For `CCCC(C)c1ccccc1O` (configuration not stated), the T/C (dose: 100.0 mg/kg/injection, schedule: Q04DX003 (ip), vehicle: saline with Tween-80) is 95 % of control.

For `O=c1oc2ccccc2cc1-c1ccc([N+](=O)[O-])cc1`, the T/C runs as follows: (dose: 100.0 mg/kg/injection, schedule: Q04DX002 (ip), vehicle: Klucel (hydroxypropylcellulose) (HPC)) 100 % of control; (dose: 200.0 mg/kg/injection, schedule: Q04DX002 (ip), vehicle: Klucel (hydroxypropylcellulose) (HPC)) 89 % of control; (dose: 400.0 mg/kg/injection, schedule: Q04DX002 (ip), vehicle: Klucel (hydroxypropylcellulose) (HPC)) 89 % of control.

For `COc1ccc(C=O)c(Br)c1O`, the T/C (dose: 100.0 mg/kg/injection, schedule: Q01DX009 (ip), vehicle: Klucel (hydroxypropylcellulose) (HPC)) was 103 % of control; the T/C (dose: 100.0 mg/kg/injection, schedule: Q04DX003 (ip), vehicle: Klucel (hydroxypropylcellulose) (HPC)) was 104 % of control; the T/C (dose: 200.0 mg/kg/injection, schedule: Q01DX009 (ip), vehicle: Klucel (hydroxypropylcellulose) (HPC)) was 97 % of control; the T/C (dose: 200.0 mg/kg/injection, schedule: Q04DX003 (ip), vehicle: Klucel (hydroxypropylcellulose) (HPC)) was 103 % of control; the T/C (dose: 400.0 mg/kg/injection, schedule: Q01DX009 (ip), vehicle: Klucel (hydroxypropylcellulose) (HPC)) is 97 % of control; the T/C (dose: 400.0 mg/kg/injection, schedule: Q04DX003 (ip), vehicle: Klucel (hydroxypropylcellulose) (HPC)) was 101 % of control.

Take `CC(C)(SC(c1ccccc1)(c1ccccc1)c1ccccc1)C(N)C(=O)O` (configuration not stated): the T/C was 103 % of control (dose: 6.25 mg/kg/injection, schedule: Q01DX009 (ip), vehicle: saline); 102 % of control (dose: 12.5 mg/kg/injection, schedule: Q01DX009 (ip), vehicle: saline); 108 % of control (dose: 25.0 mg/kg/injection, schedule: Q01DX009 (ip), vehicle: saline).

Turning to `CC(=O)OC1CCC2(C)C3=C(CCC2C1(C)C)C1(C)CCC(c2ccc(C(C)C)oc2=O)C1(C)CC3` (configuration not stated), the T/C runs as follows: (dose: 100.0 mg/kg/injection, schedule: Q01DX001 (sc), vehicle: steriod suspending solution) 103 % of control; (dose: 200.0 mg/kg/injection, schedule: Q01DX001 (sc), vehicle: steriod suspending solution) 106 % of control; (dose: 400.0 mg/kg/injection, schedule: Q01DX001 (sc), vehicle: steriod suspending solution) 103 % of control.

The values above are taken from PubChem BioAssay AID248 (DTP/NCI, 2004).
